Here are results for 26 compounds from PubChem BioAssay AID208 (DTP/NCI, 2004).

Records with an inconclusive call do not appear.

This test deals with HT29 intrarenal xenograft, nude mice, tumor weight change. Put plainly: NCI In Vivo Anticancer Drug Screen. Data for tumor model HT29;CX-1 Human Adenocarcinoma (MER+) (intrarenal inoculation) in NU/NU BALB/C (nude) mice. As to conditions: endpoint: mean tumor weight change, higher = larger tumour. The method, then:
The antitumor activity of compounds was measured in mice bearing transplantable tumors. Survival or tumor size were measured and the results are expressed as the measurement made in the treated group (T) divided by the measurement made in the vehicle treated control group (C). The tumor model used in this assay is HT29;CX-1 Human Adenocarcinoma (MER+) (intrarenal inoculation) in NU/NU BALB/C (nude) mice

[1] abbreviates: dose: 150.0 mg/kg/injection, schedule: Q04DX004 (sc), vehicle: saline with Tween-80.
Where [2] appears, read: dose: 300.0 mg/kg/injection, schedule: Q04DX004 (sc), vehicle: saline with Tween-80.
Setting [3] is: dose: 600.0 mg/kg/injection, schedule: Q04DX004 (sc), vehicle: saline with Tween-80.
Setting [4] is: dose: 1200.0 mg/kg/injection, schedule: Q04DX004 (sc), vehicle: saline with Tween-80.
The mark [5] stands for this setting: dose: 150.0 mg/kg/injection, schedule: Q04DX004 (sc), vehicle: saline.
Where [6] appears, read: dose: 300.0 mg/kg/injection, schedule: Q04DX004 (sc), vehicle: saline.
Where [7] appears, read: dose: 75.0 mg/kg/injection, schedule: Q04DX004 (ip), vehicle: saline.
Setting [8] is: dose: 150.0 mg/kg/injection, schedule: Q04DX004 (ip), vehicle: saline.

As for `COC1C(C)OC(OC2CC(C)(O)Cc3cc4c(c(O)c32)C(=O)c2c(O)cc3c(c2C4=O)OC2OC3(C)C(O)C(N(C)C)C2O)C(OC)C1(C)OC` (configuration not stated), the T/C by setting is: (dose: 20.0 mg/kg/injection, schedule: Q04DX004 (sc), vehicle: Klucel (hydroxypropylcellulose) (HPC)) 74 % of control; (dose: 40.0 mg/kg/injection, schedule: Q04DX004 (sc), vehicle: Klucel (hydroxypropylcellulose) (HPC)) 49 % of control.
Consider `O=C1N[C@@H]2C(=C[C@H](O)[C@@H](O)[C@H]2O)c2cc3c(c(O)c21)OCO3`, for which, for the setting “dose: 5.0 mg/kg/injection, schedule: Q04DX004 (sc), vehicle: saline with Tween-80”, the T/C is 177 % of control.
Regarding `N#CC(=C1SCS1)[N+](=O)[O-]`, the T/C is 69 % of control (dose: 3.0 mg/kg/injection, schedule: Q04DX004 (sc), vehicle: saline) and 113 % of control (dose: 6.0 mg/kg/injection, schedule: Q04DX004 (sc), vehicle: saline).
Consider `O=[N+]([O-])O.O=[N+]([O-])O.[NH-]C1CCCCC1[NH-].[Pt+2]` (configuration not stated), for which the T/C runs as follows: (dose: 0.5 mg/kg/injection, schedule: Q01DX010 (sc), vehicle: dextrose) 87 % of control; (dose: 1.0 mg/kg/injection, schedule: Q01DX010 (sc), vehicle: dextrose) 62 % of control; (dose: 2.0 mg/kg/injection, schedule: Q01DX010 (sc), vehicle: dextrose) 36 % of control.
As to `Cc1ccoc1`, the T/C reads like this: (dose: 50.0 mg/kg/injection, schedule: Q01DX010 (ip), vehicle: saline with Tween-80) 92 % of control; (dose: 100.0 mg/kg/injection, schedule: Q01DX010 (ip), vehicle: saline with Tween-80) 63 % of control; (dose: 200.0 mg/kg/injection, schedule: Q01DX010 (ip), vehicle: saline with Tween-80) 90 % of control.
In the case of `C=COC(=O)C(Cc1ccccc1)NC(=O)OCc1ccccc1` (configuration not stated), the T/C reads like this: under setting [1], 100 % of control; under setting [2], 80 % of control; under setting [3], 123 % of control; under setting [4], 60 % of control.
For the compound `CN(N=O)C(=O)N[C@@H](C=O)[C@@H](O)[C@H](O)[C@H](O)CO`, the T/C was 111 % of control under setting [5] and 38 % of control under setting [6].
Take `O=C(O)CCCc1ccc(N(CCCl)CCCl)cc1`: the T/C runs as follows: (dose: 0.13 mg/kg/injection, schedule: Q04DX004 (ip), vehicle: Klucel (hydroxypropylcellulose) (HPC)) 70 % of control; (dose: 0.2 mg/kg/injection, schedule: Q04DX004 (ip), vehicle: Klucel (hydroxypropylcellulose) (HPC)) 77 % of control; (dose: 0.3 mg/kg/injection, schedule: Q04DX004 (ip), vehicle: Klucel (hydroxypropylcellulose) (HPC)) 35 % of control; (dose: 40.0 mg/kg/injection, schedule: Q04DX004 (ip), vehicle: Klucel (hydroxypropylcellulose) (HPC)) 54 % of control.
As for `C=CC(C)NC(=S)NNC(=S)NC` (configuration not stated), the T/C is, setting by setting: (dose: 150.0 mg/kg/injection, schedule: Q04DX004 (sc), vehicle: saline + alcohol) 91 % of control; (dose: 300.0 mg/kg/injection, schedule: Q04DX004 (sc), vehicle: saline + alcohol) 44 % of control; (dose: 600.0 mg/kg/injection, schedule: Q04DX004 (sc), vehicle: saline + alcohol) 97 % of control; (dose: 1200.0 mg/kg/injection, schedule: Q04DX004 (sc), vehicle: saline + alcohol) 74 % of control.
As to `CCCC(=O)O.CCCC(=O)O.CCCC(=O)O.CCCC(=O)O.[Rh].[Rh]`, the T/C is 99 % of control (dose: 4.0 mg/kg/injection, schedule: Q04DX004 (sc), vehicle: suspension in saline) and 118 % of control (dose: 8.0 mg/kg/injection, schedule: Q04DX004 (sc), vehicle: suspension in saline).
Regarding `C(CSC1=NCCN1)CSC1=NCCN1`, the T/C is, setting by setting: (dose: 25.0 mg/kg/injection, schedule: Q01DX010 (sc), vehicle: saline) 78 % of control; (dose: 100.0 mg/kg/injection, schedule: Q01DX010 (sc), vehicle: saline) 66 % of control; (dose: 200.0 mg/kg/injection, schedule: Q01DX010 (sc), vehicle: saline) 46 % of control.
With `O=CC(O)C(O)C(O)C(O)CO` (configuration not stated), the T/C was 195 % of control under setting [7]; 164 % of control under setting [8]; 164 % of control (dose: 600.0 mg/kg/injection, schedule: Q04DX004 (ip), vehicle: saline).
Turning to `CC[C@@]1(O)C(=O)OCc2c1cc1n(c2=O)Cc2cc3ccccc3nc2-1`, the T/C reads like this: (dose: 0.75 mg/kg/injection, schedule: Q04DX004 (sc), vehicle: saline with Tween-80) 75 % of control; (dose: 3.0 mg/kg/injection, schedule: Q04DX004 (sc), vehicle: saline with Tween-80) 49 % of control; (dose: 6.0 mg/kg/injection, schedule: Q04DX004 (sc), vehicle: saline with Tween-80) 48 % of control; (dose: 32.0 mg/kg/injection, schedule: Q04DX004 (sc), vehicle: saline with Tween-80) 8 % of control.
Take `CNC=O`: the T/C is, setting by setting: (dose: 100.0 mg/kg/injection, schedule: Q01DX010 (ip), vehicle: saline) 81 % of control; (dose: 200.0 mg/kg/injection, schedule: Q01DX010 (ip), vehicle: saline) 64 % of control; (dose: 400.0 mg/kg/injection, schedule: Q01DX010 (ip), vehicle: saline) -33 % of control.
Regarding `Cc1cnc(/C=N\NC(N)=S)c2cccc(N)c12`, the T/C (dose: 125.0 mg/kg/injection, schedule: Q04DX004 (ip), vehicle: saline with Tween-80) was 92 % of control.
Take `COC1=C(OC)C(=O)C(SC/C=C(\C)CCCC(C)CCCC(C)CCCC(C)C)=CC1=O` (configuration not stated): the T/C is 97 % of control (dose: 300.0 mg/kg/injection, schedule: Q04DX004 (ip), vehicle: saline with Tween-80); 83 % of control (dose: 600.0 mg/kg/injection, schedule: Q04DX004 (ip), vehicle: saline with Tween-80); 88 % of control (dose: 1200.0 mg/kg/injection, schedule: Q04DX004 (ip), vehicle: saline with Tween-80).
As for `COc1cccc2c1C(=O)c1c(O)c3c(c(O)c1C2=O)C[C@@](O)(C(=O)CO)C[C@@H]3OC1CC(N2CCOCC2C#N)C(O)C(C)O1` (some centres not stated), the T/C (dose: 15.0 micrograms/kg/injection, schedule: Q04DX004 (ip), vehicle: saline) was 114 % of control; the T/C (dose: 30.0 micrograms/kg/injection, schedule: Q04DX004 (ip), vehicle: saline) was 110 % of control; the T/C (dose: 60.0 micrograms/kg/injection, schedule: Q04DX004 (ip), vehicle: saline) was 78 % of control.
For the compound `CC(=O)Oc1[nH]c(=O)c2cccc3c2c1CCC3`, the T/C reads like this: under setting [1], 207 % of control; under setting [2], 105 % of control.
`[Cl][Hg][Cl]`: the T/C by setting is: (dose: 2.5 mg/kg/injection, schedule: Q04DX004 (ip), vehicle: saline) 155 % of control; (dose: 5.0 mg/kg/injection, schedule: Q04DX004 (ip), vehicle: saline) 68 % of control.
In the case of `CN(C)CCC(=O)C(=Cc1ccc(O)cc1)C(=O)CCN(C)C`, the T/C under setting [7] is 66 % of control and the T/C under setting [8] was 100 % of control.
For `CC(C)C(N)C(=O)Nc1nncs1` (configuration not stated), the T/C under setting [5] was 94 % of control; the T/C under setting [6] is 74 % of control; the T/C (dose: 600.0 mg/kg/injection, schedule: Q04DX004 (sc), vehicle: saline) is 68 % of control.
With `CCCCc1ccc2nc(NC(=O)OC)[nH]c2c1`, the T/C reads like this: (dose: 25.0 mg/kg/injection, schedule: Q01DX010 (sc), vehicle: saline with Tween-80) 108 % of control; (dose: 100.0 mg/kg/injection, schedule: Q01DX010 (sc), vehicle: saline with Tween-80) 90 % of control; (dose: 200.0 mg/kg/injection, schedule: Q01DX010 (sc), vehicle: saline with Tween-80) 94 % of control.
In the case of `Cc1c(N)nc(C(CC(N)=O)NCC(N)C(N)=O)nc1C(=O)NC(C(=O)NC(C)C(O)C(C)C(=O)NC(C(=O)NCCc1nc(-c2nc(C(=O)NCCCNC(C)c3ccccc3)cs2)cs1)C(C)O)C(OC1OC(CO)C(O)C(O)C1OC1OC(CO)C(O)C(OC(N)=O)C1O)c1cnc[nH]1` (configuration not stated), the T/C by setting is: (dose: 4.0 mg/kg/injection, schedule: Q01DX010 (sc), vehicle: saline) 11 % of control; (dose: 16.0 mg/kg/injection, schedule: Q01DX010 (sc), vehicle: saline) 25 % of control.
Consider `C[C@@H]1C[C@@H]([C@H](O)CC2CC(=O)NC(=O)C2)C(=O)[C@@H](C)C1`, for which the T/C (dose: 75.0 mg/kg/injection, schedule: Q04DX004 (sc), vehicle: saline) is 43 % of control.
For the compound `O=C(c1cccnc1)c1cc(-c2ccccn2)c(=O)n2ccccc12`, the T/C is 87 % of control under setting [2]; 21 % of control under setting [3]; 77 % of control under setting [4]; 83 % of control (dose: 2400.0 mg/kg/injection, schedule: Q04DX004 (sc), vehicle: saline with Tween-80).
As for `CC1=C(O)C(=O)[C@@H]2O[C@@H]2C1=O`, where the note is “dose: 37.5 mg/kg/injection, schedule: Q04DX004 (sc), vehicle: saline”, the T/C was 60 % of control.
